Reference: US9487462B2, “Inhibitors of matrix metalloproteinases” (PharmaHungary 2000 Kft., priority 2010, dated 2016)
“Also recorded” adds a separate entry of the source.

How the values were obtained:
[1] = test system: neonatal rat cardiac myocytes; assay: Cytoprotective effect in cardiac myocytes subjected to hypoxia and reoxygenation; assay type: cell-based
Method in brief: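 Day-3 neonatal rat cardiomyocytes subjected to 4 h simulated ischemia (95% N2/5% CO2, hypoxic solution, 37 °C) or normoxia, then reoxygenation. MMP inhibitors at EC5, EC10, EC20 and EC50 (DMSO vehicle; ilomastat 0.5 µM control) present throughout; viability by calcein-AM relative to digitonin/propidium iodide total cell count.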

[2] = Cytotoxicity, alamarBlue viability, MRC-5; assay type: cell-based; conditions: human, MRC-5 fibroblast cells, 48 hours incubation, read-out: MRC-5 LC50
Method in brief: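 Cells exposed to compound dilutions for 48 hours, then alamarBlue added for 4 hours; fluorescence read at ex 540/em 590 nm. IC50 from six concentrations run in duplicate.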

MMP9 = MMP9 (Homo sapiens, UniProt P14780); assay: MMP activity assay (fluorogenic substrate), MMP9 catalytic domain; assay type: biochemical; conditions: Table 2
isolated rat hearts = assay: Myocardial ischemia/reperfusion injury in isolated rat hearts (Langendorff), infarct size; assay type: ex vivo
Protocol: Male Wistar rats were anesthetized with diethyl ether, heparin (500 U/kg i.v.) was administered and hearts were isolated. The hearts were assigned to three groups: (i) DMSO control and (ii) Compound 1 (1 μM) and (iii) Compound 1 (10 μM) treated. Stock solution of inhibitors was prepared in DMSO. The final DMSO concentration in all assays was 0.1%. Hearts were perfused in Langendorff mode with constant pressure (100 H2O cm) for 20 min at 37° C. then exposed to global ischemia for 30 min followed by 120 min of reperfusion. The DMSO and inhibitors were dissolved in Krebs-Henseleit buffer and administered only before onset of ischemia for 20 min (pretreatment) and during the first 30 min of reperfusion (FIG. 6). At the end of reperfusion, infarct size (IS) was defined by triphenyltetrazolium chloride staining (Csonka et al., 2010).
In separate experiments hearts were perfused to test cardioprotective effect of ALBH-know compound at 5 μM final concentration. The same protocol was used as mentioned above.

O=C(O)c1csc(CN(Cc2ccc(F)cc2)Cc2ccc(OCc3cccnc3)cc2)n1 [Compound 1, 2-({[(4-Fluorophenyl)methyl]({[4-(pyridin-3-ylmethoxy)phenyl]methyl})amino}methyl)-1,3-thiazole-4-carboxylic acid]
Cytoprotective effect, % cell survival as compared to vehicle DMSO ([1]; normoxia, EC5 concentration 2.6 microM): 120 ± 2 % | Cytoprotective effect, % cell survival as compared to vehicle DMSO ([1]; normoxia, EC10 concentration 6.3 microM): 99 ± 2% | Cytoprotective effect, % cell survival as compared to vehicle DMSO ([1]; normoxia, EC20 concentration 10.4 microM): 94 ± 2% | Cytoprotective effect, % cell survival as compared to vehicle DMSO ([1]; normoxia, EC50 concentration 17.7 microM): 86 ± 2 % | Cytoprotective effect, % cell survival as compared to vehicle DMSO ([1]; simulated ischemia, EC5 concentration 2.6 microM): 125 ± 6 % | Cytoprotective effect, % cell survival as compared to vehicle DMSO ([1]; simulated ischemia, EC10 concentration 6.3 microM): 109 ± 2% | Cytoprotective effect, % cell survival as compared to vehicle DMSO ([1]; simulated ischemia, EC20 concentration 10.4 microM): 106 ± 2% | Cytoprotective effect, % cell survival as compared to vehicle DMSO ([1]; simulated ischemia, EC50 concentration 17.7 microM): 97 ± 2% | CC50 at 48 h [2]: 25 µM | IC50 (MMP9): 37 µM | myocardial IS (infarct size) (isolated rat hearts; 1 μM and 10 μM, administered before ischemia and during reperfusion, result in words): reduced myocardial IS; also recorded: decreased infarct size significantly | Infarct size as compared with DMSO control (isolated rat hearts; 10 μM, isolated rat hearts, 30 min global ischemia, 120 min reperfusion, p<0.05): significantly decreased infarct size
